Key:
[1] = biological target: BCRP (Homo sapiens (Human), UniProt Q9UNQ0); assay: BCRP MDCKII efflux assay (Assay 7); type: in vitro ADME; details: dog; efflux ratio Papp(B-A)/Papp(A-B), BCRP MDCKII cells; read-out: Assay 7 Pe Ratio
Protocol: Assay conditions included with and without the BCRP-specific inhibitor, KO143, at a concentration of 0.3 μM to ascertain the contribution of BCRP to the efflux value of the test compound.
Final organic concentration in the assay was 1%.

[2] = biological target: EGFR wild type (EGFR WT) (Homo sapiens (Human), UniProt P00533); assay: Cellular Phosphorylation Assay, Assay 5 (EGF-stimulated EGFR phosphorylation, NIH 3T3 cells); type: cell-based
Sequence of EGFR wild type (EGFR WT) (P00533 25-1210): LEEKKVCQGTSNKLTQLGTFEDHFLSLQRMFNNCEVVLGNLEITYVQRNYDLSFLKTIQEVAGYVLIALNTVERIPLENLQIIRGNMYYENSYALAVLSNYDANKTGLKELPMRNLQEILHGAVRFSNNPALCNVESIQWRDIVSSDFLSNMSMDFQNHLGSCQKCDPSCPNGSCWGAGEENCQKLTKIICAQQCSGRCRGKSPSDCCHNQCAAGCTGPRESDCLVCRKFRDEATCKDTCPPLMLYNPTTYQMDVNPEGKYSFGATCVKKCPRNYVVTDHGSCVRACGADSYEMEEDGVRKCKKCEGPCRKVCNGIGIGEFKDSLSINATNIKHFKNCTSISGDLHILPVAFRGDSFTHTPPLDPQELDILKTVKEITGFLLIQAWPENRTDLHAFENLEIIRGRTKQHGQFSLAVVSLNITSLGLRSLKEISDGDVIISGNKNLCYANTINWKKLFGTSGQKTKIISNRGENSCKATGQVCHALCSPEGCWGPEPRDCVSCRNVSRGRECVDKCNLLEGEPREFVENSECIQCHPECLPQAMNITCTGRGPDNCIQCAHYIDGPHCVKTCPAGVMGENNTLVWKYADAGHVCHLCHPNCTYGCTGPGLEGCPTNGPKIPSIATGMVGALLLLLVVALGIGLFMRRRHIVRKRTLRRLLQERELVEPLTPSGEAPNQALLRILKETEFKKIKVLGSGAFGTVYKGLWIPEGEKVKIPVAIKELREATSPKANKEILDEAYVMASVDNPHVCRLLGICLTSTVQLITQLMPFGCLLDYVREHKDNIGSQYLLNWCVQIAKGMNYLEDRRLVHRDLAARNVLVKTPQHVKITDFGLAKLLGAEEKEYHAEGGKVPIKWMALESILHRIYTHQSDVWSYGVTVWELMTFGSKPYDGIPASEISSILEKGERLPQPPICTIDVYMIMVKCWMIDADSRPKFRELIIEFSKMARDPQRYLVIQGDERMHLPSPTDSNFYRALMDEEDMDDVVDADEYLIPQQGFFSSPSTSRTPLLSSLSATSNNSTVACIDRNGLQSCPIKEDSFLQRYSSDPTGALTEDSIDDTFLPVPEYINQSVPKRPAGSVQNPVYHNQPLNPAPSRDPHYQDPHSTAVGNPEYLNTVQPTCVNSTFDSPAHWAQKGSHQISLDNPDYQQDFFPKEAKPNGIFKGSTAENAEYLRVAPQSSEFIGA

[3] = biological target: ErbB2 with Exon 20 YVMA insertion (HER2-YVMA) (Homo sapiens (Human), UniProt P04626, INS775YVMA); assay: Cellular Phosphorylation Assay, Assay 4 (constitutive ErbB2 phosphorylation, NIH 3T3 cells); type: cell-based
Sequence of ErbB2 with Exon 20 YVMA insertion (HER2-YVMA) (P04626 other isoform, or with tags, fused parts or gaps ins YVMA behind 775): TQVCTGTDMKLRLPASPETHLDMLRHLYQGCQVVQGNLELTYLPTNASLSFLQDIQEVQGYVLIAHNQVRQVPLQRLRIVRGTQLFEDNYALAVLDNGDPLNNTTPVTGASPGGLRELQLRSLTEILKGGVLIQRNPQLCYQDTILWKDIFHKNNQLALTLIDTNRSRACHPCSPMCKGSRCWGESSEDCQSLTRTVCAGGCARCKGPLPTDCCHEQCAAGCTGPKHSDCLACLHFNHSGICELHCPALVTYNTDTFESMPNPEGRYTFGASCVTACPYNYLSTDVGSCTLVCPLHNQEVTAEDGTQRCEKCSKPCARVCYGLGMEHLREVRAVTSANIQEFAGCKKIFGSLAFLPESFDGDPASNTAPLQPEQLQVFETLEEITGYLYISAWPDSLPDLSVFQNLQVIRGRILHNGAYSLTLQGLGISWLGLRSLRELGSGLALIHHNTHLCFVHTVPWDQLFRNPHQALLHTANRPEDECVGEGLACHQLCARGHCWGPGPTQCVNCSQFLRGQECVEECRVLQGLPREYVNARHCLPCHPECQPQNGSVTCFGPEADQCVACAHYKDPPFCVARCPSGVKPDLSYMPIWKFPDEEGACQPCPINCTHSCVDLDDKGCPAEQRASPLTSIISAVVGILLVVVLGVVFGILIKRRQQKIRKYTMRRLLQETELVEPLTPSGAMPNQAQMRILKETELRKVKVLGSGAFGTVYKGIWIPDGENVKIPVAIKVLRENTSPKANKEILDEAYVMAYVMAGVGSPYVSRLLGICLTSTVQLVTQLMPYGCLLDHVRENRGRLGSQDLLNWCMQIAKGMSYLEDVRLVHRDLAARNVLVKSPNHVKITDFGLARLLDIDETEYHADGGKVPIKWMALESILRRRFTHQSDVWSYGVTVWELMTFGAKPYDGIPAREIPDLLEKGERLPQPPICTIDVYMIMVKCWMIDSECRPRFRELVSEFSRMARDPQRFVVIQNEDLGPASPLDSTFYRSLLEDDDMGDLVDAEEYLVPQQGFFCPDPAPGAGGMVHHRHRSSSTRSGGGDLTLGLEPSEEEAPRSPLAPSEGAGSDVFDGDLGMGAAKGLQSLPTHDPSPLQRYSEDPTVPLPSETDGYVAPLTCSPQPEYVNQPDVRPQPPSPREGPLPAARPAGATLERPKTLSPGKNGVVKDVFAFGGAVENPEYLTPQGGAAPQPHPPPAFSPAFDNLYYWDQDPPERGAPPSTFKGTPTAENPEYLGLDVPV

[4] = biological target: ErbB2 WT (Homo sapiens (Human), UniProt P04626); assay: ErbB Enzyme Assay (HTRF KinEASE-TK), Assay 2; type: biochemical
[5] = biological target: EGFR (Homo sapiens (Human), UniProt P00533); assay: ErbB Enzyme Assay (HTRF KinEASE-TK), Assay 3; type: biochemical
Sequence of EGFR (P00533 25-1210): as the sequence (P00533 25-1210) above

[6] = cellular EGFR WT phosphorylation, EGF-stimulated
[7] = cellular ErbB2 YVMA phosphorylation
[8] = EGF-stimulated EGFR WT phosphorylation

Sequence of BCRP (Q9UNQ0 whole entry): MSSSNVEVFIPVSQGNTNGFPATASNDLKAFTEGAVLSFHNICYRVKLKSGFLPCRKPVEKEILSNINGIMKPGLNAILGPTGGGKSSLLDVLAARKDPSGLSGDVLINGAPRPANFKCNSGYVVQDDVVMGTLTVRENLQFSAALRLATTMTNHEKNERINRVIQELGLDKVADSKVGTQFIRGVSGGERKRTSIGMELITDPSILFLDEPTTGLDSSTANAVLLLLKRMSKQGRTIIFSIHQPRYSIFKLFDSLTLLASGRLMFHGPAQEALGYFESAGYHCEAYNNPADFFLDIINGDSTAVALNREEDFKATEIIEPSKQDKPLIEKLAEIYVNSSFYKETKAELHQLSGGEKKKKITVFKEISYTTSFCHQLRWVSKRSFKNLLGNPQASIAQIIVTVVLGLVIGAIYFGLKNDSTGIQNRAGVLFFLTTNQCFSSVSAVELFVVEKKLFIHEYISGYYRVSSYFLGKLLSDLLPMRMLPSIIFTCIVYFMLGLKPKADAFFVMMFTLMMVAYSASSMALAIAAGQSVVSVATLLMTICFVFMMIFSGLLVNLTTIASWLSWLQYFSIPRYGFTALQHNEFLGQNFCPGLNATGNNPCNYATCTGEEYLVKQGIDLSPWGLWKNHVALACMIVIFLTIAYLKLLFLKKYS

Row | efflux ratio at 2 h, 1 µM [1] | IC50 [2, 6] [µM] | IC50 [3, 7] [µM] | IC50 ([4]; ErbB2 WT enzyme assay) [µM] | IC50 ([5]; EGFR enzyme assay) [µM] | IC50 [2, 8] [µM] | IC50 ([3]; ErbB2 YVMA phosphorylation) [µM] | IC50 ([4]; ErbB2 WT enzyme) [µM] | IC50 ([5]; EGFR enzyme) [µM] | SMILES
1 | 6.8 | 3.09 | 0.0202 | 0.0592 | 1.93 | – | – | – | – | C=CC(=O)N1C[C@H](c2ccc3ncnc(Nc4ccc(Oc5ccn6ncnc6c5)c(C)c4F)c3n2)C[C@H]1COC (mixture of isomers) [Example 306]
2 | 2.7 | – | – | – | – | 2.73 | 0.0104 | 0.0062 | 1.4 | C=CC(=O)N1CCC[C@@H](c2ccc3ncnc(Nc4ccc(Oc5ccc6c(c5)ncn6C)c(C)c4)c3n2)C1 (racemic) [Example 35, 1-(3-(4-((3-methyl-4-((1-methyl-1H-benzo[d]imidazol-5-yl)oxy)phenyl)amino)pyrido[3,2-d]pyrimidin-6-yl)piperidin-1-yl)prop-2-en-1-one]
3 | 15.8 | – | – | – | – | ≥ 5 | 0.0084 | 0.042 | 7.27 | C=CC(=O)N1CCC(c2ccc3ncnc(Nc4ccc(Oc5ccc6c(c5)ncn6C)c(C)c4)c3n2)C1 (racemic) [Example 120, rac-(R)-1-(3-(4-((3-methyl-4-((1-methyl-1H-benzo[d]imidazol-5-yl)oxy)phenyl)amino)pyrido[3,2-d]pyrimidin-6-yl)pyrrolidin-1-yl)prop-2-en-1-one]
4 | 6.4 | – | – | – | – | 4.76 | 0.0096 | 0.0559 | 2.16 | C=CC(=O)N1CC[C@@H](c2ccc3ncnc(Nc4ccc(Oc5ccc6c(c5)ncn6C)c(C)c4F)c3n2)C1 (racemic) [Example 131, rac-(R)-1-(3-(4-((2-fluoro-3-methyl-4-((1-methyl-1H-benzo[d]imidazol-5-yl)oxy)phenyl)amino)pyrido[3,2-d]pyrimidin-6-yl)pyrrolidin-1-yl)prop-2-en-1-one]
5 | 7.9 | – | – | – | – | ≥ 5 | 0.0188 | 0.0759 | ≥ 10 | C=CC(=O)N1CC[C@@H](c2ccc3ncnc(Nc4cc(C)c(Oc5ccc6c(c5)ncn6C)cc4F)c3n2)C1 (racemic) [Example 132, rac-(R)-1-(3-(4-((2-fluoro-5-methyl-4-((1-methyl-1H-benzo[d]imidazol-5-yl)oxy)phenyl)amino)pyrido[3,2-d]pyrimidin-6-yl)pyrrolidin-1-yl)prop-2-en-1-one]
6 | 1.9 | – | – | – | – | 4.37 | 0.0168 | 0.0279 | 2.63 | C=CC(=O)N1CCCC[C@@H](c2ccc3ncnc(Nc4cc(C)c(Oc5ccc6c(c5)ncn6C)cc4F)c3n2)C1 (racemic) [Example 137, rac-(R)-1-(3-(4-((2-fluoro-5-methyl-4-((1-methyl-1H-benzo[d]imidazol-5-yl)oxy)phenyl)amino)pyrido[3,2-d]pyrimidin-6-yl)azepan-1-yl)prop-2-en-1-one]
7 | 2.4 | – | – | – | – | ≥ 5 | 0.0176 | 0.18 | ≥ 10 | C=CC(=O)N1C[C@H](c2ccc3ncnc(Nc4cc(C)c(Oc5ccc6c(c5)ncn6C)cc4F)c3n2)CCC1(C)C (racemic) [Example 141, rac-(R)-1-(5-(4-((2-fluoro-5-methyl-4-((1-methyl-1H-benzo[d]imidazol-5-yl)oxy)phenyl)amino)pyrido[3,2-d]pyrimidin-6-yl)-2,2-dimethylpiperidin-1-yl)prop-2-en-1-one]
8 | 5.8 | 0.653 | 0.0095 | 0.0113 | 0.277 | – | – | – | – | C=CC(=O)N1CCN(c2ccc3ncnc(Nc4ccc(Oc5cnc6c(c5)ncn6C)c(C)c4F)c3n2)C[C@@H]1C(F)F (racemic) [Example 300]
9 | 6.8 | 2.13 | 0.031 | 0.155 | – | – | – | – | – | CC#CC(=O)N1C[C@@H]2CC[C@H]1CN2c1ccc2ncnc(Nc3ccc(Oc4ccn5ncnc5c4)c(C)c3F)c2n1 [Example 333]
10 | – | ≥ 5 | 0.0943 | 0.217 | ≥ 10 | – | – | – | – | C=CC(=O)N1C[C@H]2CC[C@@H]1C[C@H]2c1ccc2ncnc(Nc3cc(C)c(Oc4cnc5c(c4)ncn5C)cc3F)c2n1 [Example 421]
11 | – | ≥ 5 | 0.0517 | 0.157 | 4.01 | – | – | – | – | C=CC(=O)N1C[C@H]2CC[C@@H]1C[C@@H]2c1ccc2ncnc(Nc3ccc(Oc4cnc5c(c4)ncn5C)c(C)c3F)c2n1 [Example 422]
12 | – | ≥ 5 | 0.0708 | 0.125 | 2.55 | – | – | – | – | C=CC(=O)N1C[C@H]2CC[C@@H]1C[C@H]2c1ccc2ncnc(Nc3ccc(Oc4cnc5c(c4)ncn5C)c(C)c3F)c2n1 [Example 423]
13 | – | ≥ 5 | 0.0448 | 0.405 | ≥ 10 | – | – | – | – | C=CC(=O)N1C[C@H]2CC[C@@H]1[C@H](c1ccc3ncnc(Nc4cc(C)c(Oc5cnc6c(c5)ncn6C)cc4F)c3n1)C2 [Example 424]
14 | – | ≥ 5 | 0.0505 | 0.212 | ≥ 10 | – | – | – | – | C=CC(=O)N1C[C@H]2CC[C@@H]1[C@@H](c1ccc3ncnc(Nc4cc(C)c(Oc5cnc6c(c5)ncn6C)cc4F)c3n1)C2 [Example 425]
15 | – | ≥ 5 | 0.0564 | 0.104 | 2.99 | – | – | – | – | C=CC(=O)N1C[C@H]2CC[C@@H]1[C@@H](c1ccc3ncnc(Nc4ccc(Oc5cnc6c(c5)ncn6C)c(C)c4F)c3n1)C2 [Example 427]
16 | – | ≥ 5 | 0.0382 | 0.307 | ≥ 10 | – | – | – | – | C=CC(=O)N1CCN(c2ccc3ncnc(Nc4cc(Cl)c(Oc5cnc6c(c5)ncn6C)cc4F)c3n2)C[C@H]1C1CC1 [Example 430]
17 | – | 0.281 | 0.0152 | 0.037 | 0.21 | – | – | – | – | C=CC(=O)N1CCN(c2ccc3ncnc(Nc4ccc(Oc5ccc6scnc6c5)c(C)c4)c3n2)CC1(C)C [Example 432]
18 | – | ≥ 5 | 0.459 | 0.0363 | 1.92 | – | – | – | – | C=CC(=O)N1CC[C@H]2C[C@@H]1CN2c1ccc2ncnc(Nc3ccc(Oc4ccn5ncnc5c4)c(Cl)c3F)c2n1 [Example 436]
19 | – | ≥ 5 | 0.933 | 0.147 | ≥ 10 | – | – | – | – | C=CC(=O)N1CC[C@H]2C[C@@H]1CN2c1ccc2ncnc(Nc3cc(Cl)c(Oc4ccn5ncnc5c4)cc3F)c2n1 [Example 439]
20 | – | ≥ 5 | 0.0428 | 0.189 | ≥ 10 | – | – | – | – | C=CC(=O)N1CCN(c2ccc3ncnc(Nc4cc(Cl)c(Oc5cnc6c(c5)ncn6C)cc4F)c3n2)C[C@@H]1C1CC1 [Example 440]
21 | – | 3.44 | 0.0876 | 0.37 | ≥ 10 | – | – | – | – | C=CC(=O)N1CCN(c2ccc3ncnc(Nc4ccc(Oc5ccn6ncnc6c5)cc4C(F)(F)F)c3n2)CC1(C)C [Example 448]
22 | – | ≥ 5 | 0.0562 | 0.0919 | 7.51 | – | – | – | – | C=CC(=O)N1CCN(c2ccc3ncnc(Nc4cnc(Oc5ccn6ncnc6c5)c(C)c4)c3n2)CC1(C)C [Example 449]
23 | – | 1.16 | 0.0098 | 0.0673 | 0.48 | – | – | – | – | C=CC(=O)N1CCN(c2ccc3ncnc(Nc4ccc(Oc5cnc6c(c5)ncn6C)c(C)c4F)c3n2)CC12CC2 [Example 450]
24 | – | 3.34 | 0.0493 | 0.106 | 6.26 | – | – | – | – | C=CC(=O)N1CCN(c2ccc3ncnc(Nc4ccc(Oc5ccn6ncnc6c5)c(C(F)F)c4)c3n2)CC1(C)C [Example 451]
25 | – | ≥ 5 | 0.0563 | 0.147 | ≥ 10 | – | – | – | – | C=CC(=O)N1CCN(c2ccc3ncnc(Nc4cc(F)c(Oc5ccn6ncnc6c5)cc4F)c3n2)CC1(C)C [Example 453]
26 | – | ≥ 5 | 0.253 | 0.711 | ≥ 10 | – | – | – | – | C=CC(=O)N1CC[C@@H]2C[C@H]1CN2c1ccc2ncnc(Nc3cc(Cl)c(Oc4cnc5c(c4)ncn5C)cc3F)c2n1 [Example 456]

Row | SMILES | efflux ratio at 2 h, 1 µM [1] | IC50 [2, 6] [µM] | IC50 [3, 7] [µM] | IC50 ([4]; ErbB2 WT enzyme assay) [µM] | IC50 ([5]; EGFR enzyme assay) [µM] | IC50 [2, 8] [µM] | IC50 ([3]; ErbB2 YVMA phosphorylation) [µM] | IC50 ([4]; ErbB2 WT enzyme) [µM] | IC50 ([5]; EGFR enzyme) [µM]
27 | C=CC(=O)N1C[C@@H]2CC[C@H]1CN(c1ccc3ncnc(Nc4ccc(Oc5ccn6ncnc6c5)c(C)c4F)c3n1)C2 (racemic) [Example 327] | 5.4 | 3.5 | 0.0093 | 0.0128 | 1.16 | – | – | – | –
28 | C=CC(=O)N1[C@H]2CC[C@@H]1[C@H](c1ccc3ncnc(Nc4cc(C)c(Oc5ccn6ncnc6c5)cc4F)c3n1)CC2 [Example 428] | – | 0.954 | 0.0247 | 0.0624 | 1.48 | – | – | – | –
29 | C=CC(=O)N1[C@H]2CC[C@@H]1[C@H](c1ccc3ncnc(Nc4ccc(Oc5ccn6ncnc6c5)c(C)c4F)c3n1)CC2 [Example 429] | – | 0.447 | 0.0138 | 0.0284 | 0.52 | – | – | – | –
30 | C=CC(=O)N1C2CCC1CN(c1ccc3ncnc(Nc4ccc(Oc5ccc6c(c5)ncn6C)c(C)c4F)c3n1)C2 [Example 431] | – | 0.393 | 0.0131 | 0.0449 | 0.712 | – | – | – | –
31 | C=CC(=O)N1C2CC1CN(c1ccc3ncnc(Nc4ccc(Oc5cnc6c(c5)ncn6C)c(C)c4F)c3n1)C2 [Example 438] | – | ≥ 5 | 0.0098 | 0.352 | ≥ 10 | – | – | – | –
32 | C=CC(=O)N1CC2CCC(C1)N2c1ccc2ncnc(Nc3ccc(Oc4ccn5ncnc5c4)c(Cl)c3F)c2n1 [Example 445] | – | 0.0601 | 0.0057 | 0.0047 | 0.0336 | – | – | – | –
